Reference: patent US20170119806A1, “[…] LACTONE DERIVATIVES AND METHODS OF MAKING AND USING THEREOF” (OHIO STATE INNOVATION FOUNDATION, priority 2014, published 2017)
Entries after “also recorded” stand apart in the source; their conditions may differ.

Key:
topo IIα = topo IIα (Homo sapiens, UniProt P11388); experiment: Topoisomerase II assay (DNA cleavage/relaxation); type: biochemical; details: 100 μM test compound
Excerpt: The formation of linear DNA was detected by separating the SDS-treated reaction products using ethidium bromide gel electrophoresis and quantified by accounting for the relationship between fluorescence and relative band intensity for open circular (OC), linear (LNR), supercoiled (SC), and relaxed (RLX) configurations of DNA.
Topoisomerase II Assay. […] The formation of linear DNA was detected by separating the SDS-treated reaction products using ethidium bromide gel electrophoresis by a modification of a previously described procedure (Hasinoff B B et al. Mol. Pharmacol. 2005, 67, 937-947). In this system, topo II-mediated catalytic conversion of supercoiled pBR322 DNA to the “relaxed” form of plasmic' DNA can also be observed. A 20 μL cleavage assay reaction mixture contained 250 ng topo IIα protein, 160 ng pBR322 plasmid DNA (NEB, Ipswich, Mass.), 1.0 mM ATP in assay buffer (10 mM Tris-HCl (pH 7.5), 50 mM KCl, 50 mM NaCl, 0.1 mM EDTA, 5 mM MgCl2, 2.5% glycerol), and 100 μM of test compounds or DMSO solvent, as indicated. Assay buffer (17 μL) and test compound/DMSO (1 μL) were mixed and allowed to sit at room temperature for 30 min after which 2 μL of topo IIα was added to initiate the reaction. Tubes were incubated at 37° C. for 15 min, and then quenched with 1% (v/v) SDS/10 mM disodium EDTA/200 mM NaCl. The mixture was treated subsequently with 0.77 mg/mL proteinase K (Sigma) at 55° C. for 60 min to digest the protein, and DNA bands were separated by electrophoresis (18 h at 2 V/cm) on an agarose gel (1.3% w/v) containing 0.7 μg/mL ethidium bromide in TAE buffer pH 8.0 (40 mM Tris base, 0.114% (v/v) glacial acetic acid, 2 mM EDTA). The DNA in the gel was imaged by its fluorescence on a Chemi-Doc XRS+ imager (Bio-Rad, Hercules, Calif.). Linear DNA was quantified by accounting for the relationship between fluorescence and relative band intensity for open circular (QC), linear (LNR), supercoiled (SC), and RLX (relaxed) configurations of DNA (Projan S J et al. Plasmid 1983, 9, 182-190), then calculating % of LNR from the total DNA content in each lane.

[1] = test system: HT-29 human colon cancer cells
Protocol: The cytotoxicity of the test compounds was screened against HT-29 cells by a previously reported procedure (Ren Y et al. J. Nat. Prod 2011, 74, 1117-1125). Paclitaxel and etoposide were used as positive controls.
All arylnaphthalene lignans isolated from P. poilanet in the present study and their semi-synthetic analogues were evaluated for their cytotoxicity against HT-29 human colon cancer cells, using paclitaxel as the positive control (Table 6) (Ren Y et al. J. Nat. Prod 2011, 74, 1117-1125).

NF-κB p65 = experiment: Immunoblotting of p65 and p-p65 in NK cells; type: cell-based, human; details: 5 and 10 μM PL-C, 18 h
Protocol: (A) Purified primary human NK cells were treated with 5 and 10 μM PL-C for 18 h. The cells were harvested and lysed for immunoblotting using p65 and p-p65 Abs. β-Actin immunoblotting was included as the internal control. Data shown are for treatment with PL-C alone (top panel) or in combination with IL-12 (10 ng/mL) (middle panel) or IL-15 (100 ng/mL) (bottom panel) and are the representative plots of four donors with similar results. Numbers under each lane represent quantification of p-p65 or p65 via densitometry, after normalizing to β-actin. (B) NKL cells were treated, and data are presented as described in (A). Data from one of three independent experiments with similar results are shown. (C) Purified primary human NK (left panel) or NKL cells (right panel) were cotreated with 10 μM PL-C and IL-12 (10 ng/mL) in the presence or absence of the NF-κB inhibitor TPCK (10 μM) for 18 h. Supernatants were assayed for IFN-γ secretion by ELISA (top panel), and cells were harvested and lysed for immunoblotting of p-p65 (bottom panel). Representative data from one of three donors with the similar data (left panel) and the summary of three independent experiments with similar results (right panel) are shown. **p<0.01. Error bars represent SD.
Immunoblotting. Immunoblotting was performed as described previously (Yu J et al. Immunity 2006, 24, 575-590; Yu J et al. Blood 2010, 115, 274-281). […]

Chain of topo IIα (P11388 whole entry): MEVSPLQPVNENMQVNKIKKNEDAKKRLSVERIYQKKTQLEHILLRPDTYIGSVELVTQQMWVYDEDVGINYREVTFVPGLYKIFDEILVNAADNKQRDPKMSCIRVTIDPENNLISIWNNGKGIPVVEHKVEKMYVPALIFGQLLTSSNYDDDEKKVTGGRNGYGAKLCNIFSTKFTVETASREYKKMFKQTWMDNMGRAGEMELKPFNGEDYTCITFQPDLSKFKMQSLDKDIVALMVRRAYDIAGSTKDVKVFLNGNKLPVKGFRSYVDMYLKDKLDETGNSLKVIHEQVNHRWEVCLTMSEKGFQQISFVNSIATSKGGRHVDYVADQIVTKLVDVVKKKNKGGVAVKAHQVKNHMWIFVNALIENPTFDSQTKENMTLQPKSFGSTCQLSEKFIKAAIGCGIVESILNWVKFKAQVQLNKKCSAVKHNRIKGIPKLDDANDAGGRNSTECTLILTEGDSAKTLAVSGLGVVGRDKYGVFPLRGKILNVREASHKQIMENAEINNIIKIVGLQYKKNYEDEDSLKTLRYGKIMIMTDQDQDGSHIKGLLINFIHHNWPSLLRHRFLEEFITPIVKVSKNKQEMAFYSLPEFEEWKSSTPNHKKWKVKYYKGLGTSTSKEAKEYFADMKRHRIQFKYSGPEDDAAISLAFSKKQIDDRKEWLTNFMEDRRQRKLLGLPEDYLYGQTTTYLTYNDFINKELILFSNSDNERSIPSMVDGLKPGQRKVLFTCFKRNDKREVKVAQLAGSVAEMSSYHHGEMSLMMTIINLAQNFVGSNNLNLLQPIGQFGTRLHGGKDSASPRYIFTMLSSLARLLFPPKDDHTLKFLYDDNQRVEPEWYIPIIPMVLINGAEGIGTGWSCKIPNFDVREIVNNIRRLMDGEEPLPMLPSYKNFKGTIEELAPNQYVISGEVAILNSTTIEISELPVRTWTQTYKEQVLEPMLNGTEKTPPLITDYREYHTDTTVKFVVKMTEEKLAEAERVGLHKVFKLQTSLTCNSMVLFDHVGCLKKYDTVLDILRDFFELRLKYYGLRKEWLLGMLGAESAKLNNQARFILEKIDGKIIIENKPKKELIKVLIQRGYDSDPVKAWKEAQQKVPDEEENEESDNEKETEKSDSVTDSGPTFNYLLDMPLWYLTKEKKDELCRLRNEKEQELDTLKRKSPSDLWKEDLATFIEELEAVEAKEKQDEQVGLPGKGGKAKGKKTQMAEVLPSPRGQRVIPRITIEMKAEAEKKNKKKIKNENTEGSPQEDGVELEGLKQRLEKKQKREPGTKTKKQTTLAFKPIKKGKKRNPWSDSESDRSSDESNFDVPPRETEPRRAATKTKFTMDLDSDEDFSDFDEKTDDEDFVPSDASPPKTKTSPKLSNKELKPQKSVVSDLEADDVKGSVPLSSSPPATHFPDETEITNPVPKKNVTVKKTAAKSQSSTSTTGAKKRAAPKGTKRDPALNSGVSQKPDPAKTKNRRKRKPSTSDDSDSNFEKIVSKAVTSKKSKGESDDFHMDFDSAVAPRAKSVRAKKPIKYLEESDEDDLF

What does the source list for `COc1cc2c(OC3OCC(O)C(O)C3O)c3c(c(-c4ccc5c(c4)OCO5)c2cc1OC)C(=O)OC3` (stereo not drawn) [Compound 4, Phyllanthusmin C]?
topo IIα inhibition (in words) (topo IIα): not topo Ha inhibitors; also recorded: not topo IIα inhibitors; cytotoxicity toward HT-29 cells (in words) [1]: cytotoxic; NF-κB p65 phosphorylation in primary NK and NKL cells (NF-κB p65): increased
